# Test results taken from US6872805B2 (Bristol-Myers Squibb Company, priority 2000, dated 2005).
# pEC50, pIC50: −log10 of the molar value.
# Key:
# [1] = molecular target: HCV NS3/4A protease complex (Hepatitis C virus genotype 1a, UniProt P27958, C1454S/C1711G); experiment: Recombinant HCV NS3/4A protease complex FRET peptide assay (strain not stated); type: biochemical; details: IC50, NS3/4A protease enzyme assay, strain not stated; activity ranges
# [2] = system: HCV replicon in Huh7 cells; experiment: HCV replicon cell-based assay; design: species or system HCV strain 1B; details: Hepatitis C virus, Huh-7, 96 h; HCV replicon, Huh7 cells, 4 days; activity ranges; read-out: EC50
# Text: An HCV replicon whole cell system was established as described by Lohmann V, Korner F, Koch J, Herian U, Theilmann L, Bartenschlager R., Science 285(5424):110-3 (1999). This system enabled us to evaluate the effects of our HCV Protease compounds on HCV RNA replication. Briefly, using the HCV strain 1B sequence described in the Lohmann paper (Assession number:AJ238799), an HCV cDNA was generated encoding the 5′ internal ribosome entry site (IRES), the neo gene, the EMCV-IRES and the HCV nonstructural proteins, NS3-NS5B, and 3′ NTR. […] Resulting cell lines were characterized for positive and negative RNA production and protein production over time.
# Huh7 cells, constitutively expressing the HCV replicon, were grown in DMEM containing 10% FCS (Fetal calf serum) and 1 mg/ml G418 (Gibco-BRL). Cells were seeded the night before (1.5×10^4 cells/well) in 96-well tissue-culture sterile plates. Compound was prepared in DMEM containing 4% FCS, 1:100 Penicillin/Streptomysin, 1:100 L-glutamine and 0.5% DMSO. Compound/DMSO mixes were added to the cells and incubated for 4 days at 37° C. After 4 days, cells were either lyzed using the Rneasy kit (Qiagen) to isolate and purify RNA for an EC50 determination or assessed for cytotoxicity using alamar Blue (Trek Diagnotstic Systems) for a CC50 reading. For an EC50 determination, purified total RNA was normalized using RiboGreen (Jones L J, Yue S T, Cheung C Y, Singer V L, Anal. Chem., 265(2):368-74 (1998)) and relative quantitation of HCV RNA expression assessed using the Taqmann procedure (Kolykhalov A A, Mihalik K, Feinstone S M, Rice C M, Journal of Virology 74, 2046-2051 (2000)). Briefly, RNA made to a volume of 5 μl (≦1 ng) was added to a 20 μl Ready-Mix containing the following: 5×EZ rTth buffer, 3 mM MnOAc2, 3 mM dNTPs, 200 nM forward primer, 600 nM reverse primer, 100 nM probe and rTth polymerase. Samples containing known concentrations of HCV RNA transcript were run as standards. Using the following cycling protocol (95° C., 1 min; 60° C., 0.5 min; 95° C., 2 min; 40 cycles of 94° C., 0.5 min, 60° C.; 1 min; and completing with 60° C., 10 min), HCV RNA expression was quantitated as described in the Perkin Elmer manual. The toxicity of compound (CC50) was determined by adding 1/10th volume of alamar Blue to the media incubating the cells. After 4 hr, the fluorescence signal from each well was read, with an excitation wavelength at 530 nm and an emission wavelength of 580 nm, using the Cytofluor Series 4000 (Perspective Biosystems).
# Sequence of HCV NS3/4A protease complex (P27958 1027-1711, stated change not applied): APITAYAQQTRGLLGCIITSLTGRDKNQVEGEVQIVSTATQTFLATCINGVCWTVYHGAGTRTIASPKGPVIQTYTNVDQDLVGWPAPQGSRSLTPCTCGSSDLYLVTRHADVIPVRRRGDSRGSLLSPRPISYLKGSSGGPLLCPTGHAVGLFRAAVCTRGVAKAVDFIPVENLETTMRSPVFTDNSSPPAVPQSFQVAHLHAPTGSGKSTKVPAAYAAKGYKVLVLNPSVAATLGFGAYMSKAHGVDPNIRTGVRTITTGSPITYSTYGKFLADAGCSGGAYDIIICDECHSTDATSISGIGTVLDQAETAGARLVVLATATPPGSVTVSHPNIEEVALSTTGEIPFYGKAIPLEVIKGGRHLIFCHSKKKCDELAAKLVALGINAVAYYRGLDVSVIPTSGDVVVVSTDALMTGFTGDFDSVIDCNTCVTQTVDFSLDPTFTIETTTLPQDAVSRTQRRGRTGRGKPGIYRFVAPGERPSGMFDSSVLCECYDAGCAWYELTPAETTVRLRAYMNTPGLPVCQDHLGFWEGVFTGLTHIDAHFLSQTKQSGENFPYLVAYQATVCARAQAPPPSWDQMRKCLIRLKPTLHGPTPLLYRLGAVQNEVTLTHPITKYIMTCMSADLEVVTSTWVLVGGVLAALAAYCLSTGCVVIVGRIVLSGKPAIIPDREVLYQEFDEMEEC
# Sequence of HCV NS3/4A protease complex (P27958 1027-1711, stated change not applied): as above
Compound,pIC50 [1],pEC50 [2]
C=CC1C[C@]1(NC(=O)[C@@H]1C[C@@H](Oc2cc(-c3ccccc3)nc3cc(OC)ccc23)CN1C(=O)[C@@H](NC(=O)OC(C)(C)C)C1CCCC1)C(=O)NS(=O)(=O)C1CC1 (some centres unmarked) [Compound 29],> 7.30,> 7.30
"C=CC1C[C@]1(NC(=O)[C@@H]1C[C@@H](Oc2cc(-c3ccccc3)nc3cc(OC)ccc23)CN1C(=O)[C@@H](NC(=O)N(CCC(F)(F)F)CC1CC1)C(C)(C)C)C(=O)NS(=O)(=O)C1CC1 (stereo in doubt) [Compound 20, 1-{2-[3-Cyclopropylmethyl-3-(3,3,3-trifluoropropyl)-ureido]-3,3-dimethylbutyryl}-4-(7-methoxy-2-phenyl-quinolin-4-yloxy)-pyrrolidine-2-carboxylic acid (1-cyclopropanesulfonylaminocarbonyl-2-vinyl-cyclopropyl)amide]",> 7.30,> 6.30
C=CC1C[C@]1(NC(=O)[C@@H]1C[C@@H](Oc2cc(-c3ccccc3)nc3cc(OC)ccc23)CN1C(=O)[C@@H](NC(=O)OC(C)(C)C)C(C)(C)C)C(=O)NS(=O)(=O)c1ccc([N+](=O)[O-])cc1 (some centres unmarked) [Compound 52],> 6.30,> 6.30
"C=C[C@@H]1C[C@]1(NC(=O)C1CC(Oc2cc(-c3ccccc3)nc3cc(OC)ccc23)CN1C(=O)[C@@H](NC(=O)CCl)C(C)(C)C)C(=O)NS(=O)(=O)C1CC1 (stereo partly drawn) [Compound 120, 1-[2S-(2-chloro-acetylamino)-3,3-dimethyl-butyryl]-4R-(7-methoxy-2-phenyl-quinolin-4-yloxy)-pyrrolidine-2S-carboxylic acid (1R-cyclopropanesulfonylaminocarbonyl-2S-vinylcyclopropyl)-amide]",> 7.30,> 7.30
C=CC1C[C@]1(NC(=O)[C@@H]1C[C@@H](Oc2cc(-c3ccccc3)nc3cc(OC)ccc23)CN1C(=O)[C@@H](NC(=O)OC(C)(C)C)C(C)(C)C)C(=O)NS(=O)(=O)c1ccc(Br)cc1 (some centres unmarked) [Compound 17],> 6.30,> 6.30
C=CC1C[C@]1(NC(=O)[C@@H]1C[C@@H](Oc2cc(-c3ccccc3)nc3cc(OC)ccc23)CN1C(=O)[C@@H](NC(=O)OC(C)(C)C)C(C)(C)C)C(=O)NS(=O)(=O)c1ccccc1[N+](=O)[O-] (some centres unmarked) [Compound 51],> 7.30,> 6.30
C=CC1CC1(NC(=O)[C@@H]1C[C@@H](Oc2cc(-c3ccccc3)nc3cc(OC)ccc23)CN1C(=O)[C@@H](NC(=O)OC(C)(C)C)C(C)(C)C)C(=O)NS(C)(=O)=O (some centres unmarked) [Compound 86],> 7.30,> 6.30
C=CCC[C@](C)(NC(=O)[C@@H]1C[C@@H](Oc2cc(-c3ccccc3)nc3cc(OC)ccc23)CN1C(=O)C(NC(=O)OC(C)(C)C)C(C)(C)C)C(=O)NS(=O)(=O)c1ccc(Cl)cc1 (some centres unmarked) [Compound 44],> 7.30,> 6.30
C=CC1C[C@]1(NC(=O)[C@@H]1C[C@@H](Oc2cc(-c3ccccc3)nc3cc(OC)ccc23)CN1C(=O)[C@@H](NC(=O)OC(C)(C)C)C(C)(C)C)C(=O)NS(=O)(=O)c1ccccc1C#N (some centres unmarked) [Compound 50],> 6.30,> 5.30
C=CC1C[C@]1(NC(=O)[C@@H]1C[C@@H](Oc2cc(-c3ccccc3)nc3cc(OC)ccc23)CN1C(=O)[C@@H](NC(=O)OC(C)(C)C)C1CCCC1)C(=O)NS(=O)(=O)C(C)C (some centres unmarked) [Compound 30],> 7.30,> 7.30
"C=C[C@@H]1C[C@]1(NC(=O)C1C[C@@H](Oc2cc(-c3ccccc3)nc3cc(OC)ccc23)CN1C(=O)[C@@H](NC(=O)COC(C)=O)C(C)(C)C)C(=O)NS(=O)(=O)C1CC1 (stereo partly drawn) [Compound 106, acetic acid {1S-[2S-(1R-cyclopropanesulfonylaminocarbonyl-2S-vinyl-cyclopropylcarbamoyl)-4R-(7-methoxy-2-phenyl-quinolin-4-yloxy)-pyrrolidine-1-carbonyl]-2,2-dimethyl-propylcarbamoyl}-methyl ester]",> 7.30,> 6.30
C=C1C[C@]1(NC(=O)[C@@H]1C[C@@H](Oc2cc(-c3ccccc3)nc3cc(OC)ccc23)CN1C(=O)C(NC(=O)OC(C)(C)C)C(C)(C)C)C(=O)NS(=O)(=O)c1cc(F)ccc1C (some centres unmarked) [Compound 46],> 7.30,> 6.30
"C#CCOC(=O)N[C@H](C(=O)N1C[C@H](Oc2cc(-c3ccccc3)nc3cc(OC)ccc23)CC1C(=O)N[C@]1(C(=O)NS(=O)(=O)C2CC2)C[C@H]1C=C)C(C)(C)C (stereo partly drawn) [Compound 124, {1S-[2S-(1R-cyclopropanesulfonylaminocarbonyl-2S-vinyl-cyclopropylcarbamoyl)-4R-(7-methoxy-2-phenyl-quinolin-4-yloxy)-pyrrolidine-1-carbonyl]-2,2-dimethyl-propyl}-carbamic acid prop-2-ynyl ester]",> 7.30,> 7.30
C=CC1C[C@]1(NC(=O)[C@@H]1C[C@@H](Oc2cc(-c3ccccc3)nc3cc(OC)ccc23)CN1C(=O)C(NC(=O)OC(C)(C)C)C(C)(C)C)C(=O)NS(=O)(=O)c1ccc(C(C)(C)C)cc1 (some centres unmarked) [Compound 60],> 6.30,> 6.30
"CCC1C[C@]1(NC(=O)[C@@H]1C[C@@H](Oc2cc(-c3ccccc3)nc3cc(OC)ccc23)CN1C(=O)[C@@H](NC(=O)OC(C)(C)C)C(C)(C)C)C(=O)NS(=O)(=O)C1CC1 (stereo in doubt) [Compound 2, {1-[2-(1-cyclopropanesulfonylamino-carbonyl-2-ethylcyclopropylcarbamoyl)-4-(7-methoxy-2-phenyl-quinolin-4-yloxy)-pyrrolidine-1-carbonyl]-2,2-dimethylpropyl}carbamic acid tert-butyl ester]",> 7.30,> 7.30
"C=CC1C[C@]1(NC(=O)C1CC(Oc2cc(-c3ccccc3)nc3cc(OC)ccc23)CN1C(=O)[C@@H](NC)C(C)(C)C)C(=O)NS(=O)(=O)C1CC1 (stereo partly drawn) [Compound 132, (3,3-dimethyl-2-methylamino-butyryl)-4R-(7-methoxy-2-phenyl-quinolin-4-yloxy)-pyrrolidine-2S-carboxylic acid (1R-cyclopropanesulfonylaminocarbonyl-2S-vinyl-cyclo-propyl)amide]",> 7.30,> 5.30
C=CC1C[C@]1(NC(=O)[C@@H]1C[C@@H](Oc2cc(-c3ccccc3)nc3cc(OC)ccc23)CN1C(=O)[C@@H](NC(=O)OC(C)(C)C)C(C)(C)C)C(=O)N[S+]([O-])C(C)(C)C (some centres unmarked) [Compound 61],> 6.30,> 5.30
"C=C[C@@H]1C[C@]1(NC(=O)C1CC(Oc2cc(-c3ccccc3)nc3cc(OC)ccc23)CN1C(=O)[C@@H](NC(=O)Oc1ccccc1)C(C)(C)C)C(=O)NS(=O)(=O)C1CC1 (stereo partly drawn) [Compound 116, {1S-[2S-(1R-cyclopropanesulfonylaminocarbonyl-2S-vinyl-cyclopropylcarbamoyl)-4R-(7-methoxy-2-phenyl-quinolin-4-yloxy)-pyrrolidine-1-carbonyl]-2,2-dimethyl-propyl}-carbamic acid phenyl ester]",> 7.30,> 7.30
CCC1C[C@]1(NC(=O)C1C[C@@H](Oc2cc(-c3ccccc3)nc3cc(OC)ccc23)CN1C(=O)[C@@H](NC(=O)OCCF)C(C)C)C(=O)NS(=O)(=O)C1CC1 (some centres unmarked) [Compound 9],> 7.30,> 6.30
C=CCC[C@](C)(NC(=O)[C@@H]1C[C@@H](Oc2cc(-c3ccccc3)nc3cc(OC)ccc23)CN1C(=O)C(NC(=O)OC(C)(C)C)C(C)(C)C)C(=O)NS(=O)(=O)c1ccccc1 (some centres unmarked) [Compound 38],> 7.30,> 7.30
"C=CC1CC1(NC(=O)C1CC(Oc2cc(-c3ccccc3)nc3cc(OC)ccc23)CN1C(=O)C(NC(=O)C1C2CC1C2)C(C)(C)C)C(=O)NS(=O)(=O)C1CC1 (stereo not drawn) [Compound 105, 1-{2S-[(bicyclo[1.1.1]pentane-2-carbonyl)-amino]-3,3-dimethyl-butyryl}-4R-(7-methoxy-2-phenyl-quinolin-4-yloxy)-pyrrolidine-2S-carboxylic acid (1R-cyclopropanesulfonylaminocarbonyl-2S-vinylcyclopropyl)amide]",> 7.30,> 7.30
C=CCC[C@](C)(NC(=O)[C@@H]1C[C@@H](Oc2cc(-c3ccccc3)nc3cc(OC)ccc23)CN1C(=O)C(NC(=O)OC(C)(C)C)C(C)(C)C)C(=O)NS(=O)(=O)c1ccc(F)c(Cl)c1 (some centres unmarked) [Compound 45],> 7.30,> 6.30
